Source: patent US8383619B2, “Pharmaceutical compounds” (Astex Therapeutics Limited, priority 2008, dated 2013)

How the values were obtained:
Experiment in all cases: Anti-proliferative assay (Oncodesign)
Assay type in all cases: cell-based
A-375-SM = conditions: Homo sapiens, A375-SM; A-375-SM (SKIN); read-out: IC50 (Concentration of test compound)
Method: (§1) The anti-proliferative activities of the parent compounds of the pro-drugs of the invention may be determined by measuring the ability of the compounds to inhibition of cell growth in a number of cell lines such as the human colon cancer cell line HCT116. Inhibition of cell growth is measured using the Alamar Blue assay (Nociari, M. M, Shalev, A., Benias, P., Russo, C. Journal of Immunological Methods 1998, 213, 157-167). The method is based on the ability of viable cells to reduce resazurin to its fluorescent product resorufin. For each proliferation assay cells are plated onto 96 well plates and allowed to recover for 16 hours prior to the addition of inhibitor compounds for a further 72 hours. At the end of the incubation period 10% (v/v) Alamar Blue is added and incubated for a further 6 hours prior to determination of fluorescent product at […]. In the case of the non-proliferating cell assay cells are maintained at confluence for 96 hour prior to the addition of inhibitor compounds for a further 72 hours. The number of viable cells is determined by Alamar Blue assay as before. Cell lines may be obtained from the ECACC (European Collection of cell Cultures).
(§2) The parent compound of the pro-drugs of Examples 1 to 25 i.e. (2,4-dihydroxy-5-isopropyl-phenyl)-[5-(4-methyl-piperazin-1-ylmethyl)-1,3-dihydro-isoindol-2-yl]-methanone, in the form of its L-lactate salt, was tested in anti-proliferative assays against one hundred cell lines by Oncodesign (Dijon, France). The IC50 values against each cell line are set out in the table below and the figures in the table refer to nanomolar concentrations. The compounds were tested up to a concentration of 10,000 nanomolar.

BB65-RCC = BB65-RCC (KIDNEY); read-out: IC50 (Concentration of test compound)
Method: as §1, §2

CAMA-1 = conditions: Homo sapiens; CAMA-1 (BREAST); read-out: IC50 (Concentration of test compound)
Method: as §1, §2

CCRF-CEM = conditions: Homo sapiens; CCRF-CEM (BLOOD); read-out: IC50 (Concentration of test compound)
Method: as §1, §2

CGL-1 = CGL-1 (BRAIN); read-out: IC50 (Concentration of test compound)
Method: as §1, §2

CGL-3 = CGL-3 (BRAIN); read-out: IC50 (Concentration of test compound)
Method: as §1, §2

CGL-9 = CGL-9 (BRAIN); read-out: IC50 (Concentration of test compound)
Method: as §1, §2

Daudi = conditions: Homo sapiens; Daudi (BLOOD); read-out: IC50 (Concentration of test compound)
Method: as §1, §2

FTC-238 = FTC-238 (THYROID); read-out: IC50 (Concentration of test compound)
Method: as §1, §2

Hs 294T = conditions: Homo sapiens; Hs 294T (SKIN); read-out: IC50 (Concentration of test compound)
Method: as §1, §2

IGROV-1/CDDP = conditions: Homo sapiens; IGROV-1/CDDP (OVARY); read-out: IC50 (Concentration of test compound)
Method: as §1, §2

LB12-SCLC/OC2 = LB12-SCLC/OC2 (LUNG); read-out: IC50 (Concentration of test compound)
Method: as §1, §2

LB1319-MEL = LB1319-MEL (SKIN); read-out: IC50 (Concentration of test compound)
Method: as §1, §2

LNCaP-FGC = LNCaP-FGC (PROSTATE); read-out: IC50 (Concentration of test compound)
Method: as §1, §2

MCF-7/ras = conditions: Homo sapiens, MCF7; MCF-7/ras (BREAST); read-out: IC50 (Concentration of test compound)
Method: as §1, §2

MCF-7 = conditions: Homo sapiens, MCF7; MCF-7 (BREAST); read-out: IC50 (Concentration of test compound)
Method: as §1, §2

MDA-MB-435 = conditions: Homo sapiens; MDA-MB-435 (BREAST); read-out: IC50 (Concentration of test compound)
Method: as §1, §2

Malme-3M = conditions: Homo sapiens; Malme-3M (SKIN); read-out: IC50 (Concentration of test compound)
Method: as §1, §2

NAMALWA = NAMALWA (BLOOD); read-out: IC50 (Concentration of test compound)
Method: as §1, §2

NCI-H69 = conditions: Homo sapiens; NCI-H69 (LUNG); read-out: IC50 (Concentration of test compound)
Method: as §1, §2

NIH: OVCAR-3 = conditions: Homo sapiens; NIH: OVCAR-3 (OVARY); read-out: IC50 (Concentration of test compound)
Method: as §1, §2

PA-1 = conditions: Homo sapiens; PA-1 (OVARY); read-out: IC50 (Concentration of test compound)
Method: as §1, §2

PANC-1 = conditions: Homo sapiens; PANC-1 (PANCREAS); read-out: IC50 (Concentration of test compound)
Method: as §1, §2

Raji = conditions: Homo sapiens; Raji (BLOOD); read-out: IC50 (Concentration of test compound)
Method: as §1, §2

SUP-B15 = conditions: Homo sapiens; SUP-B15 (BLOOD); read-out: IC50 (Concentration of test compound)
Method: as §1, §2

ZR-75-1 = conditions: Homo sapiens; ZR-75-1 (BREAST); read-out: IC50 (Concentration of test compound)
Method: as §1, §2

CC(C)c1cc(C(=O)N2Cc3ccc(CN4CCN(C)CC4)cc3C2)c(O)cc1O [(2,4-dihydroxy-5-isopropyl-phenyl)-[5-(4-methyl-piperazin-1-ylmethyl)-1,3-dihydro-isoindol-2-yl]-methanone]
IC50 (A-375-SM): 340 nM
IC50 (BB65-RCC): 1250 nM
IC50 (CAMA-1): 22 nM
IC50 (CCRF-CEM): 107 nM
IC50 (CGL-1): > 10000 nM
IC50 (CGL-3): 75 nM
IC50 (CGL-9): 161 nM
IC50 (Daudi): 136 nM
IC50 (FTC-238): 26 nM
IC50 (Hs 294T): 219 nM
IC50 (IGROV-1/CDDP): 147 nM
IC50 (LB12-SCLC/OC2): 52 nM
IC50 (LB1319-MEL): 35 nM
IC50 (LNCaP-FGC): 78 nM
IC50 (MCF-7/ras): 166 nM
IC50 (MCF-7): > 10000 nM
IC50 (MDA-MB-435): 122 nM
IC50 (Malme-3M): 157 nM
IC50 (NAMALWA): 93 nM
IC50 (NCI-H69): 162 nM
IC50 (NIH: OVCAR-3): 45 nM
IC50 (PA-1): > 10000 nM
IC50 (PANC-1): 327 nM
IC50 (Raji): 881 nM
IC50 (SUP-B15): 37 nM
IC50 (ZR-75-1): 131 nM
